The text below walks through data of ChEMBL document CHEMBL4177535 (Bioorg Med Chem Lett, 2017).

Test [1] has as its target Rap guanine nucleotide exchange factor 3 (Homo sapiens, UniProt O95398). Description: Activation of EPAC1 DEP1 deletion mutant (unknown origin) expressed in mouse NIH-3T3-A14 cells assessed as increase in Rap1b- fluorescent nucleotide methylontraniloyl-GDP nucleotide exchange by fluorescence assay. The class given is cell-based.
Test [2] has as its system Human immunodeficiency virus 1. Description: Antiviral activity against R5 tropic HIV-1 BAL infected in human PBL assessed as reduction in Agp24 level at 100 uM measured after 3 days by ELISA relative to control. The class given is functional. On the set-up: scale not given: the % may be the effect or the level left. For orientation: In an ELISA, binding on a coated surface is turned into a signal by an enzyme label.

Rap guanine nucleotide exchange factor 3, sequence (O95398 whole entry, looked up): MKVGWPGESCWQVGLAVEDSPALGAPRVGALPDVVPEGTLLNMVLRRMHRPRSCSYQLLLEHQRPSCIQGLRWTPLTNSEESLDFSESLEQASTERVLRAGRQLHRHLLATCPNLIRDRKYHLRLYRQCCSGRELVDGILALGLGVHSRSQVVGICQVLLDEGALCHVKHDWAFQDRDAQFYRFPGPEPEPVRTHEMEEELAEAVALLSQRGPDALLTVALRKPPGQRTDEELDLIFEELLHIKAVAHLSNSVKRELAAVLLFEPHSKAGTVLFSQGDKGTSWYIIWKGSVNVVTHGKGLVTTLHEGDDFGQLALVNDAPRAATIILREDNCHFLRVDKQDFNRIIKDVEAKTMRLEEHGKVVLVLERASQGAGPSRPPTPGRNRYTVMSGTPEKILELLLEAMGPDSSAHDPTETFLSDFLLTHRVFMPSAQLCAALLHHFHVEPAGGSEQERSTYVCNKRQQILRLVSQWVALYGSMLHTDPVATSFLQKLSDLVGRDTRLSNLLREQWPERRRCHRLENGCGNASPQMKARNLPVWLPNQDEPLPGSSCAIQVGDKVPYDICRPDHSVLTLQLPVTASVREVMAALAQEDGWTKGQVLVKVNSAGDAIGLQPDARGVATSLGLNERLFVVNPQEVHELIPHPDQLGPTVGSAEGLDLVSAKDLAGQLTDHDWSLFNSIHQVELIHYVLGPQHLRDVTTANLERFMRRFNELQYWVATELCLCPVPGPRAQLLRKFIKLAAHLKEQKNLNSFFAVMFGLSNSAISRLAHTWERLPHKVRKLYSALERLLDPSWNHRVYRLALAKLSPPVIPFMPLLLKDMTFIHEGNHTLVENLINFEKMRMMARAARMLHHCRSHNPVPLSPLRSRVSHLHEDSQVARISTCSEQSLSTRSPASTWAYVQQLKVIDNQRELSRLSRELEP

As a reminder, the EC50 is the concentration giving half of the maximal effect. With `CO[C@@H]1[C@@H]2OP(=O)(O)OC[C@H]2O[C@H]1n1c(Sc2ccc(Cl)cc2)nc2c(N)ncnc21`, the EC50 in test [1] was 2.2 µM. For the same compound, the Activity in test [2] was found to be 40%.
